# Laboratory results published in ChEMBL document CHEMBL1151565, “Biological evaluation of two potent inhibitors of Trypanosoma cruzi epimastigotes against the intracellular form of the parasite” (1996).
# “And” between values parts separate entries of the source, which are not always exact repeats. Equal entries are not always repeated.
# How the values were obtained:
# Assay type in all cases: functional
# [1] = Compound was tested for its activity against T. cruzi-infected L6E9 myoblasts at no concentration at 48 hr.
# [2] = Compound was tested for its activity against T. cruzi-infected L6E9 myoblasts at a concentration of 40 ug/mL.
# [3] = Compound was tested for its activity against T. cruzi-infected L6E9 myoblasts expressed as parasites number per 100 myoblasts at no concentration at 72h.
# [4] = Compound was tested for its activity against T. cruzi-infected L6E9 myoblasts expressed as parasites number per 100 myoblasts at no concentration at 24 h.
# [5] = Compound was tested for its activity against T. cruzi-infected L6E9 myoblasts at no concentration at 24 h.
# [6] = Compound was tested for its activity against T. cruzi-infected L6E9 myoblasts expressed as parasites number per 100 myoblasts at no concentration at 48 hr.
# [7] = Compound was tested for its activity against T. cruzi-infected L6E9 myoblasts at a concentration of 30 ug/mL.
# [8] = Compound was tested for its activity against T. cruzi-infected L6E9 myoblasts expressed as parasites number per 100 myoblasts at a concentration of 30 ug/mL.
# [9] = Compound was tested for its activity against T. cruzi-infected L6E9 myoblasts at no concentration at 72h.
# [10] = Compound was tested for its activity against T. cruzi-infected L6E9 myoblasts at a concentration of 5 ug/mL.
# [11] = Compound was tested for its activity against T. cruzi-infected L6E9 myoblasts expressed as parasites number per 100 myoblasts at a concentration of 5 ug/mL.
# [12] = Compound was tested for its activity against T. cruzi-infected L6E9 myoblasts at a concentration of 10 ug/mL.
Structure (SMILES),Myoblast with parasites [1] [%],Myoblast with parasites [2],Parasites no. per 100 Myoblasts [3],Parasites no. per 100 Myoblasts [4],Myoblast with parasites [5] [%],Parasites no. per 100 Myoblasts [6],Myoblast with parasites [7],Parasites no. per 100 Myoblasts [8],Myoblast with parasites [9] [%],Myoblast with parasites [10],Parasites no. per 100 Myoblasts [11],Myoblast with parasites [12]
CCSC(=O)OC/C=C(\C)CC/C=C(\C)CCC1OC1(C)C (stereo unspecified),16.25,10.25% and 2.75%,694.5,46.5,21.25,118,23.25% and 9.75%,77.75 and 27,20.5,–,–,–
c1ccc(Oc2ccc(OCCOC3CCCCO3)cc2)cc1 (stereo unspecified),24.5,–,–,–,21.25,107,–,–,18.25,22.5% and 22%,90.25 and 113.75,21.25% and 12.5%
